Experimental data taken from ChEMBL document CHEMBL1909046, “DrugMatrix in vitro pharmacology data”.

Tests used:
[1] = target: Mitogen-activated protein kinase 3 (Homo sapiens, UniProt P27361); test: DRUGMATRIX: Protein Serine/Threonine Kinase, ERK1 enzyme inhibition (substrate: Myelin Basic Protein); parameters: species or system Escherichia coli; conditions: Not Active = under 50% inhibition at 10 µM
D(3) dopamine receptor = D(3) dopamine receptor (Homo sapiens, UniProt P35462); test: DRUGMATRIX: Dopamine D3 radioligand binding (ligand: [3H] Spiperone); assay type: cell membranes, CHO, Membrane
[2] = target: T1, Muscarinic acetylcholine receptor M5 (Homo sapiens, UniProt P08912); assay type: cell membranes, CHO-K1, Membrane; also: in other assays of this panel Not Active means under 50% inhibition at 10 µM
T1 sequence (P08912 whole entry): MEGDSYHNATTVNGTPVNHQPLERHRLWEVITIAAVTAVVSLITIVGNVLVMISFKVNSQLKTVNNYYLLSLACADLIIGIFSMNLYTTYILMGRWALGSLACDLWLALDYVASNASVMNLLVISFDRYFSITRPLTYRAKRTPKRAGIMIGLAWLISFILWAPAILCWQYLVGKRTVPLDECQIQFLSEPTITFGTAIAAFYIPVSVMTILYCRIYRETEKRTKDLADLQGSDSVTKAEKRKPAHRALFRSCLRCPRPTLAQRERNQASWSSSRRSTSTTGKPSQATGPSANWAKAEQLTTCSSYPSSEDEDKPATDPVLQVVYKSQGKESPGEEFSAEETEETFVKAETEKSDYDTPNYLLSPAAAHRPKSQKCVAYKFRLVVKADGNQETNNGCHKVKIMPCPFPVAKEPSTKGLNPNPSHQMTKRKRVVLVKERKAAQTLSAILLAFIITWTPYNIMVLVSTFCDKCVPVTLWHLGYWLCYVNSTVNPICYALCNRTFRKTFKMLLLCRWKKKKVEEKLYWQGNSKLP

Cytochrome P450 2D6 = Cytochrome P450 2D6 (Homo sapiens, UniProt P10635); conditions: bti-tn-5b1-4; also: in other assays of this panel Not Active means under 50% inhibition at 10 µM
Mu-type opioid receptor = Mu-type opioid receptor (Homo sapiens, UniProt P35372); test: DRUGMATRIX: Opiate mu (OP3, MOP) radioligand binding (ligand: [3H] Diprenorphine); assay type: cell membranes, CHO-K1, Membrane; conditions: cho-k1; Not Active = under 50% inhibition at 10 µM
[3] = target: T2, Alpha-1D adrenergic receptor (Homo sapiens, UniProt P25100); assay type: cell membranes, HEK293, Membrane; also: in other assays of this panel Not Active means under 50% inhibition at 10 µM
T2 sequence (P25100 whole entry): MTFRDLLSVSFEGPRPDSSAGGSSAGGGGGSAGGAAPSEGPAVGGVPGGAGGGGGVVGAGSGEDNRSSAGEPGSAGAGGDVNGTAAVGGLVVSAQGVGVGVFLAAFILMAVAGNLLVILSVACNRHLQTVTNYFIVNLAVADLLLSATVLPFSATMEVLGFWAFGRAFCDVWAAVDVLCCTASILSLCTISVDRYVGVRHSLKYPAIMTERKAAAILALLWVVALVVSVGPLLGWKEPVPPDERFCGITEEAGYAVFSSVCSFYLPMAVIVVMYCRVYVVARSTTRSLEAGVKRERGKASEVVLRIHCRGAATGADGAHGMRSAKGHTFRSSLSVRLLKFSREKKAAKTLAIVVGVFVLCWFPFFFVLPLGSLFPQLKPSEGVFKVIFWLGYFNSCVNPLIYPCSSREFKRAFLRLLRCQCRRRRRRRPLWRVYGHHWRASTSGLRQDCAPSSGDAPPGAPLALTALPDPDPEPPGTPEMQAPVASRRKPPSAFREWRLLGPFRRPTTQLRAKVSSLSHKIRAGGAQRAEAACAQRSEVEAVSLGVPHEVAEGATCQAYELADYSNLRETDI

Chain of Cytochrome P450 2D6 (P10635 whole entry): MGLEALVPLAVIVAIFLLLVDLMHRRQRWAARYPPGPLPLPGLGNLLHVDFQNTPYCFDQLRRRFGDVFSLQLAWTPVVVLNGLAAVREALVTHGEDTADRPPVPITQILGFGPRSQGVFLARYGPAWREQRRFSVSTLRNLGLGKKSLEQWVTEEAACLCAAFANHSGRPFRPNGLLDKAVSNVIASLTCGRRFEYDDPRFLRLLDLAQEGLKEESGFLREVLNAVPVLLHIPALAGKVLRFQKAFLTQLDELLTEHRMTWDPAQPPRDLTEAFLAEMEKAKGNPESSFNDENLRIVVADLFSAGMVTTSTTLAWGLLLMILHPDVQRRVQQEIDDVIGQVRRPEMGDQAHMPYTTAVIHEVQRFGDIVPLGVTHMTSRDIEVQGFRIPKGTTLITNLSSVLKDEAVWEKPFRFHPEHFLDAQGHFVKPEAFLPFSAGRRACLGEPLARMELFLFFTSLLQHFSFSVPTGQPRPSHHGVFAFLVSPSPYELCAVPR
Chain of Mitogen-activated protein kinase 3 (P27361 whole entry): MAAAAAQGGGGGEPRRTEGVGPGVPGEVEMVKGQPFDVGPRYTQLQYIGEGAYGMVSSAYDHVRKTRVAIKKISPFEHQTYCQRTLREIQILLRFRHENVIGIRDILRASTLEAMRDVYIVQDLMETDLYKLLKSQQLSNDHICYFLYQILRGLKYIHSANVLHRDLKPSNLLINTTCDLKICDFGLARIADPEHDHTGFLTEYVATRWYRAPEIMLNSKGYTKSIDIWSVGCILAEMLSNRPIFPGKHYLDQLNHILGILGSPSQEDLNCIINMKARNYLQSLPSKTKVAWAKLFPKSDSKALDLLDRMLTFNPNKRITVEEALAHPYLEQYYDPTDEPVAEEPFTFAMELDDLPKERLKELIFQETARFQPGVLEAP
Chain of D(3) dopamine receptor (P35462 whole entry): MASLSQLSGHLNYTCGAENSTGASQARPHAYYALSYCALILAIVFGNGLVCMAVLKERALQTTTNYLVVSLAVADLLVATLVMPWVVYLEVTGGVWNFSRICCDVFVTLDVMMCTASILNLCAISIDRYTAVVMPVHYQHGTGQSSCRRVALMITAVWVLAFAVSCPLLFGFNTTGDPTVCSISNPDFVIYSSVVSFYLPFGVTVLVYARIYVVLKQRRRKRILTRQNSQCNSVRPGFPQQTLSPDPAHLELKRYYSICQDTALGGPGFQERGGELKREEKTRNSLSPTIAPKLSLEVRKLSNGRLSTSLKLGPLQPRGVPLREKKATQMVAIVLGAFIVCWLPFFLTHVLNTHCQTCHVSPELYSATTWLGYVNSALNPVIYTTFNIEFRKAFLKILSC
Chain of Mu-type opioid receptor (P35372 whole entry): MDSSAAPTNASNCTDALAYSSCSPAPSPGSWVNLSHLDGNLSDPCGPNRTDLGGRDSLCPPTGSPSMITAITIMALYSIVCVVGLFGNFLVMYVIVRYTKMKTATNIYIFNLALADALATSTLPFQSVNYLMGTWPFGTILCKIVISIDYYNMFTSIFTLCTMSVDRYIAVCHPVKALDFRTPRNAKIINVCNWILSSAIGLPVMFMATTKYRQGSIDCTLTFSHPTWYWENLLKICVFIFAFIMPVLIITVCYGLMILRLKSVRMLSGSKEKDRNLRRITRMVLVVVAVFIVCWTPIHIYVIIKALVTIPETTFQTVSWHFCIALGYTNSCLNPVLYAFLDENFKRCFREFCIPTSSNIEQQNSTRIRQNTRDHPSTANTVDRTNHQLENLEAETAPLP

Row | Compound | IC50 [1] | IC50 (D(3) dopamine receptor; cho) | IC50 ([2]; cho-k1) | IC50 (Cytochrome P450 2D6) | Ki (Cytochrome P450 2D6) | IC50 (Mu-type opioid receptor) | IC50 ([3]; hek293) | IC50 (D(3) dopamine receptor; read-out: IC50) | Ki (D(3) dopamine receptor; read-out: Ki) | IC50 ([2]; read-out: IC50) | Ki ([2]; read-out: Ki) | IC50 ([3]; read-out: IC50) | Ki ([3]; read-out: Ki)
1 | CC12CCC(CC1)C(C)(C)O2 [EUCALYPTOL] | Not Active | Not Active | Not Active | Not Active | Not Active | Not Active | Not Active |  |  |  |  |  | 
2 | OC[C@H]1OC2C3[C@@H](CO)OC(O[C@H]4[C@H](O)[C@@H](O)[C@@H](O[C@H]5[C@H](O)[C@@H](O)[C@@H](O[C@H]6[C@H](O)[C@@H](O)[C@@H](O[C@H]7[C@H](O)[C@@H](O)[C@@H](O[C@H]8[C@H](O)[C@@H](O)[C@@H](O[C@H]9[C@H](O)[C@@H](O)C(OC1[C@H](O)[C@H]2O)O[C@@H]9CO)O[C@@H]8CO)O[C@@H]7CO)O[C@@H]6CO)O[C@@H]5CO)O[C@@H]4CO)[C@H](O)[C@H]3O | Not Active | Not Active | Not Active | Not Active | Not Active | Not Active | Not Active |  |  |  |  |  | 
3 | CN(CCOc1ccc(C[C@H](Nc2ccccc2C(=O)c2ccccc2)C(=O)O)cc1)c1ccccn1 | Not Active | Not Active | Not Active | Not Active | Not Active | Not Active | Not Active |  |  |  |  |  | 
4 | CCN1CCN(c2cc3c(cc2F)c(=O)c(C(=O)O)cn3C2CC2)CC1 [ENROFLOXACIN] | Not Active | Not Active | Not Active | Not Active | Not Active | Not Active | Not Active |  |  |  |  |  | 
5 | NC(=O)NC(=O)Cc1ccccc1 [PHENACEMIDE] | Not Active | Not Active | Not Active | Not Active | Not Active | Not Active | Not Active |  |  |  |  |  | 
6 | CC(CN1c2ccccc2Sc2ccccc21)N(C)C (centres undefined) [PROMETHAZINE] | Not Active |  |  | Not Active | Not Active | Not Active |  | 559 nM | 190 nM | 4.6 nM | 3.31 nM | 183 nM | 90 nM
7 | NC(N)=Nc1nc(CSCCC(N)=NS(N)(=O)=O)cs1 [FAMOTIDINE] | Not Active | Not Active | Not Active | Not Active | Not Active | Not Active | Not Active |  |  |  |  |  | 
8 | C[C@]12CC[C@@H](O)C[C@@H]1CC[C@@H]1[C@@H]2CC[C@]2(C)C(=O)CC[C@@H]12 [ANDROSTERONE] | Not Active | Not Active | Not Active | Not Active | Not Active | Not Active | Not Active |  |  |  |  |  | 
9 | CC(=O)[C@]1(O)Cc2c(O)c3c(c(O)c2[C@@H](O[C@H]2C[C@H](N)[C@H](O)[C@H](C)O2)C1)C(=O)c1ccccc1C3=O [IDARUBICIN] | Not Active | Not Active | Not Active | Not Active | Not Active | Not Active | Not Active |  |  |  |  |  | 
10 | COC(=O)Nc1nc2ccc(Sc3ccccc3)cc2[nH]1 [FENBENDAZOLE] | Not Active | Not Active | Not Active | Not Active | Not Active | Not Active | Not Active |  |  |  |  |  | 
11 | Cc1ccnc2c1NC(=O)c1cccnc1N2C1CC1 [NEVIRAPINE] | Not Active | Not Active | Not Active | Not Active | Not Active | Not Active | Not Active |  |  |  |  |  | 
12 | OC[C@H]1O[C@@H]2O[C@H]3[C@H](O)[C@@H](O)[C@@H](O[C@H]4[C@H](O)[C@@H](O)[C@@H](O[C@H]5[C@H](O)[C@@H](O)[C@@H](O[C@H]6[C@H](O)[C@@H](O)[C@@H](O[C@H]7[C@H](O)[C@@H](O)[C@@H](O[C@H]8[C@H](O)[C@@H](O)[C@@H](O[C@H]1[C@H](O)[C@H]2O)O[C@@H]8CO)O[C@@H]7CO)O[C@@H]6CO)O[C@@H]5CO)O[C@@H]4CO)O[C@@H]3CO [BETADEX] | Not Active | Not Active | Not Active | Not Active | Not Active | Not Active | Not Active |  |  |  |  |  | 
13 | O=C(O)CO [GLYCOLIC ACID] | Not Active | Not Active | Not Active | Not Active | Not Active | Not Active | Not Active |  |  |  |  |  | 
